What was measured:
[1] = tested on: Rattus norvegicus; experiment: Toxicity in […] normotensive Wistar rat assessed as mean arterial pressure at 40 mg/kg, ip after 15 mins (reference value: 93.81 +/- 1.543 mmHg); assay type: organism-based, Artery; parameters: dose 40 mg/kg, route intraperitoneal; conditions: in vivo, 0.25 h
[2] = tested on: Rattus norvegicus; experiment: Antihypertensive activity in Wistar rat assessed as mean arterial pressure at 40 mg/kg, ip after 45 mins (reference value: 193.96 +/- 0.865 mmHg); assay type: functional, Artery; conditions: route intraperitoneal
[3] = tested on: Rattus norvegicus; experiment: Toxicity in anesthetized-normotensive Wistar rat assessed as heart rate at 40 mg/kg, ip measured immediately at 0 min (reference value: 316.62 +/- 9.643 bpm); assay type: organism-based; parameters: dose 40 mg/kg, route intraperitoneal; conditions: in vivo, 0 h
[4] = tested on: Rattus norvegicus; experiment: Antihypertensive activity in Wistar rat assessed as mean arterial pressure at 40 mg/kg, ip after 60 mins (reference value: 195.11 +/- 0.531 mmHg); assay type: functional, Artery; conditions: route intraperitoneal
[5] = tested on: Rattus norvegicus; experiment: Toxicity in anesthetized-normotensive Wistar rat assessed as heart rate at 40 mg/kg, ip after 45 mins (reference value: 316.82 +/- 8.452 bpm); assay type: organism-based; parameters: dose 40 mg/kg, route intraperitoneal; conditions: in vivo, 0.75 h
[6] = tested on: Rattus norvegicus; experiment: Antihypertensive activity in Wistar rat assessed as mean arterial pressure at 40 mg/kg, ip measured immediately at 0 min (reference value: 194.08 +/- 1.962 mmHg); assay type: functional, Artery; conditions: route intraperitoneal
[7] = tested on: Rattus norvegicus; experiment: Toxicity in anaesthetized-Wistar rat assessed as QRS ECG interval at 40 mg/kg, ip after 15 mins (reference value: 18.9 +/- 1.563 ms); assay type: organism-based; parameters: dose 40 mg/kg, route intraperitoneal; conditions: in vivo, 0.25 h
[8] = tested on: Rattus norvegicus; experiment: Toxicity in […] normotensive Wistar rat assessed as mean arterial pressure at 40 mg/kg, ip measured immediately at 0 min (reference value: 94.21 +/- 2.065 mmHg); assay type: organism-based, Artery; parameters: dose 40 mg/kg, route intraperitoneal; conditions: in vivo, 0 h
[9] = tested on: Rattus norvegicus; experiment: Antiarrhythmic activity in barium chloride-induced Wistar rat assessed as increase in mortality time at 40 mg/kg, ip administered 60 mins before barium chloride challenge (reference value: 682.8 +/- 9.656 secs); assay type: functional, Heart; conditions: route intraperitoneal
[10] = tested on: Rattus norvegicus; experiment: Toxicity in anaesthetized-Wistar rat assessed as P-Q ECG interval at 40 mg/kg, ip after 30 mins (reference value: […] +/- 0.927 ms); assay type: organism-based; parameters: dose 40 mg/kg, route intraperitoneal; conditions: in vivo, 0.5 h
[11] = tested on: Rattus norvegicus; experiment: Antihypertensive activity in Wistar rat assessed as mean arterial pressure at 40 mg/kg, ip after 15 mins (reference value: 195.68 +/- 1.623 mmHg); assay type: functional, Artery; conditions: route intraperitoneal
[12] = tested on: Rattus norvegicus; experiment: Toxicity in anaesthetized-Wistar rat assessed as P-Q ECG interval at 40 mg/kg, ip measured immediately at 0 min (reference value: 52.4 +/- 0.927 ms); assay type: organism-based; parameters: dose 40 mg/kg, route intraperitoneal; conditions: in vivo, 0 h
[13] = tested on: Rattus norvegicus; experiment: Toxicity in anaesthetized-Wistar rat assessed as Q-T ECG interval at 40 mg/kg, ip after 45 mins (reference value: 78.8 +/- 0.927 ms); assay type: organism-based; parameters: dose 40 mg/kg, route intraperitoneal; conditions: in vivo, 0.75 h
[14] = tested on: Rattus norvegicus; experiment: Toxicity in anaesthetized-Wistar rat assessed as QRS ECG interval at 40 mg/kg, ip after 30 mins (reference value: 19.9 +/- 1.393 ms); assay type: organism-based; parameters: dose 40 mg/kg, route intraperitoneal; conditions: in vivo, 0.5 h
[15] = tested on: Rattus norvegicus; experiment: Toxicity in anaesthetized-Wistar rat assessed as Q-T ECG interval at 40 mg/kg, ip after 15 mins (reference value: 79.4 +/- 1.270 ms); assay type: organism-based; parameters: dose 40 mg/kg, route intraperitoneal; conditions: in vivo, 0.25 h
[16] = tested on: Rattus norvegicus; experiment: Toxicity in […] normotensive Wistar rat assessed as mean arterial pressure at 40 mg/kg, ip after 45 mins (reference value: 94.83 +/- 0.943 mmHg); assay type: organism-based, Artery; parameters: dose 40 mg/kg, route intraperitoneal; conditions: in vivo, 0.75 h
[17] = tested on: Rattus norvegicus; experiment: Toxicity in anaesthetized-Wistar rat assessed as P-Q ECG interval at 40 mg/kg, ip after 45 mins (reference value: 52.5 +/- 0.780 ms); assay type: organism-based; parameters: dose 40 mg/kg, route intraperitoneal; conditions: in vivo, 0.75 h
[18] = tested on: Rattus norvegicus; experiment: Toxicity in anaesthetized-Wistar rat assessed as Q-T ECG interval at 40 mg/kg, ip measured immediately at 0 min (reference value: 78.8 +/- 1.030 ms); assay type: organism-based; parameters: dose 40 mg/kg, route intraperitoneal; conditions: in vivo, 0 h
[19] = tested on: Rattus norvegicus; experiment: Toxicity in anaesthetized-Wistar rat assessed as P-Q ECG interval at 40 mg/kg, ip after 15 mins (reference value: 52.2 +/- 1.158 ms); assay type: organism-based; parameters: dose 40 mg/kg, route intraperitoneal; conditions: in vivo, 0.25 h
[20] = tested on: Rattus norvegicus; experiment: Toxicity in anesthetized-normotensive Wistar rat assessed as heart rate at 40 mg/kg, ip after 30 mins (reference value: 317.68 +/- 7.631 bpm); assay type: organism-based; parameters: dose 40 mg/kg, route intraperitoneal; conditions: in vivo, 0.5 h
[21] = tested on: Rattus norvegicus; experiment: Toxicity in […] normotensive Wistar rat assessed as mean arterial pressure at 40 mg/kg, ip after 30 mins (reference value: 94.68 +/- 1.213 mmHg); assay type: organism-based, Artery; parameters: dose 40 mg/kg, route intraperitoneal; conditions: in vivo, 0.5 h
[22] = tested on: Rattus norvegicus; experiment: Toxicity in anaesthetized-Wistar rat assessed as QRS ECG interval at 40 mg/kg, ip measured immediately at 0 min (reference value: 19.6 +/- 1.142 ms); assay type: organism-based; parameters: dose 40 mg/kg, route intraperitoneal; conditions: in vivo, 0 h
[23] = tested on: Rattus norvegicus; experiment: Toxicity in anaesthetized-Wistar rat assessed as QRS ECG interval at 40 mg/kg, ip after 60 mins (reference value: 19.3 +/- 0.873 ms); assay type: organism-based; parameters: dose 40 mg/kg, route intraperitoneal; conditions: in vivo, 1 h
[24] = tested on: Rattus norvegicus; experiment: Toxicity in […] normotensive Wistar rat assessed as mean arterial pressure at 40 mg/kg, ip after 60 mins (reference value: 95.07 +/- 1.973 mmHg); assay type: organism-based, Artery; parameters: dose 40 mg/kg, route intraperitoneal; conditions: in vivo, 1 h
[25] = tested on: Rattus norvegicus; experiment: Toxicity in anaesthetized-Wistar rat assessed as Q-T ECG interval at 40 mg/kg, ip after 30 mins (reference value: 78.3 +/- 0.860 ms); assay type: organism-based; parameters: dose 40 mg/kg, route intraperitoneal; conditions: in vivo, 0.5 h
[26] = tested on: Rattus norvegicus; experiment: Antihypertensive activity in Wistar rat assessed as mean arterial pressure at 40 mg/kg, ip after 30 mins (reference value: 194.72 +/- 1.002 mmHg); assay type: functional, Artery; conditions: route intraperitoneal
[27] = tested on: Rattus norvegicus; experiment: Toxicity in anaesthetized-Wistar rat assessed as QRS ECG interval at 40 mg/kg, ip after 45 mins (reference value: 20.2 +/- 1.348 ms); assay type: organism-based; parameters: dose 40 mg/kg, route intraperitoneal; conditions: in vivo, 0.75 h
[28] = tested on: Rattus norvegicus; experiment: Toxicity in anesthetized-normotensive Wistar rat assessed as heart rate at 40 mg/kg, ip after 60 mins (reference value: 314.96 +/- 9.442 bpm); assay type: organism-based; parameters: dose 40 mg/kg, route intraperitoneal; conditions: in vivo, 1 h
[29] = tested on: Rattus norvegicus; experiment: Toxicity in anaesthetized-Wistar rat assessed as Q-T ECG interval at 40 mg/kg, ip after 60 mins (reference value: 79.7 +/- 0.965 ms); assay type: organism-based; parameters: dose 40 mg/kg, route intraperitoneal; conditions: in vivo, 1 h
[30] = tested on: Rattus norvegicus; experiment: Toxicity in anesthetized-normotensive Wistar rat assessed as heart rate at 40 mg/kg, ip after 15 mins (reference value: 313.93 +/- 9.912 bpm); assay type: organism-based; parameters: dose 40 mg/kg, route intraperitoneal; conditions: in vivo, 0.25 h
[31] = tested on: Rattus norvegicus; experiment: Toxicity in anaesthetized-Wistar rat assessed as P-Q ECG interval at 40 mg/kg, ip after 60 mins (reference value: […] +/- 0.924 ms); assay type: organism-based; parameters: dose 40 mg/kg, route intraperitoneal; conditions: in vivo, 1 h
[32] = tested on: Rattus norvegicus; experiment: Antiarrhythmic activity in barium chloride-induced Wistar rat assessed as increase in appearance time of arrhythmia at 40 mg/kg, ip administered 60 mins before barium chloride challenge (reference value: 129.4 +/- 4.373 sec); assay type: functional, Heart; conditions: route intraperitoneal

Structure (SMILES)	Activity [1] [mmHg]	Activity [2] [mmHg]	Activity [3] [bpm]	Activity [4] [mmHg]	Activity [5] [bpm]	Activity [6] [mmHg]	Activity [7] [min]	Activity [8] [mmHg]	Time [9] [s]	Activity [10] [min]	Activity [11] [mmHg]	Activity [12] [ms]	Activity [13] [min]	Activity [14] [ms]	Activity [15] [min]	Activity [16] [mmHg]	Activity [17] [min]	Activity [18] [min]	Activity [19] [min]	Activity [20] [bpm]	also measured
O=C1/C(=C\c2ccccc2)S/C(=N\c2ccccc2)N1CC(O)CN1CCC(C(O)(c2ccccc2)c2ccccc2)CC1 (stereo unspecified)	76.73	135.96	332.05	162.87	295.73	193.69	23.1	91.39	1162.1	51.3	176.43	49.8	74.9	23.8	73.4	64.53	52.4	72.9	50.1	279.31	Activity [21]: 70.26 mmHg; Activity [22]: 22.4 min; Activity [23]: 22.5 min; Activity [24]: 71.94 mmHg; Activity [25]: 74.3 min; Activity [26]: 139.21 mmHg; Activity [27]: 24.2 min; Activity [28]: 302.12 bpm; Activity [29]: 72.7 ms; Activity [30]: 310.46 bpm; Activity [31]: 50.2 min; Time [32]: 323.4 s
CC(C)N1CCN(CC(O)CN2C(=O)/C(=C\c3ccccc3)S/C2=N\c2ccccc2)CC1 (stereo unspecified)	79.32	146.51	310.34	160.84	253.26	193.37	23.7	92.09	1213.7	54.1	185.53	53.5	77.1	24.1	76.2	65.43	55.2	76	53.9	272.41	Activity [21]: 62.08 mmHg; Activity [22]: 23.3 min; Activity [23]: 24.8 min; Activity [24]: 76.27 mmHg; Activity [25]: 76.6 min; Activity [26]: 161.56 mmHg; Activity [27]: 24.6 min; Activity [28]: 302.92 bpm; Activity [29]: 77.4 ms; Activity [30]: 298.46 bpm; Activity [31]: 55.6 min; Time [32]: 354.8 s
CCN(CC)CC(O)CN1C(=O)/C(=C\c2ccccc2)S/C1=N\c1ccccc1 (stereo unspecified)	79.23	119.43	319.65	159.87	309.56	194.43	19.4	91.39	1142.4	53.8	172.98	52	84.8	21.2	81.4	63.51	54.2	80.4	52.2	274.66	Activity [21]: 68.93 mmHg; Activity [22]: 18.4 min; Activity [23]: 21.4 min; Activity [24]: 73.31 mmHg; Activity [25]: 83.2 min; Activity [26]: 161.27 mmHg; Activity [27]: 20.6 min; Activity [28]: 312.28 bpm; Activity [29]: 86.4 ms; Activity [30]: 312.24 bpm; Activity [31]: 55.6 min; Time [32]: 343.1 s

Reference: ChEMBL document CHEMBL3232945 (Eur J Med Chem, 2014)
